Measured values as given in patent publication EP0745599A2, “1-(3-Heterocyclylphenyl)-s-triazine-2,4,6-oxo or thiotrione herbicidal agents” (American Cyanamid Company, priority 1995, dated 1996).

Tests used:
Type in all cases: in vivo
Conditions in all cases: rated four to five weeks after treatment
[1] = test system: AMBROSIA ARTEMISIIFOLIA, L.; test: Preemergence herbicidal evaluation, AMBEL (Ragweed, Common)
Method in brief: (§1)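 Seeds sown on potting soil in cups; soil surface sprayed with aqueous acetone solution of test compound at about 0.125 to 0.50 kg per hectare. Greenhouse-grown, rated four to five weeks after treatment on a 0-9 visual scale (stand, vigor, malformation, size, chlorosis) versus untreated control.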

[2] = test system: ABUTILON THEOPHRASTI, MEDIC.; test: Preemergence herbicidal evaluation, ABUTH (Velvetleaf)
Method in brief: as §1

[3] = test system: GLYCINE MAX(L)MERR. CV. WILLIAMS; test: Preemergence herbicidal evaluation, GLXMAW (Soybean, Williams)
Method in brief: as §1

[4] = test system: SETARIA VIRIDIS, (L) BEAU; test: Postemergence herbicidal evaluation, SETVI (Foxtail, Green)
Method in brief: (§2)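 Visual 0–9 ratings against untreated control, taken four to five weeks post-spray, score stand, vigor, malformation, size, chlorosis and overall appearance. Treatment was a postemergence spray at about 0.125 to 0.500 kg/ha on roughly two-week-old seedlings.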

ZEA MAYS L. [5] = test: Postemergence herbicidal evaluation, ZEAMX (Corn, Field)
Method: (§3) In the tests, seedling plants are grown in jiffy flats for about two weeks. The test compounds are dispersed in 50/50 acetone/water mixtures containing 0.5% TWEEN®20, a polyoxyethylene sorbitan monolaurate surfactant of Atlas Chemical Industries, in sufficient quantities to provide the equivalent of about 0.125 kg to 0.500 kg per hectare of active compound when applied to the plants through a spray nozzle operating at 40 psi for a predetermined time. After spraying, the plants are placed on greenhouse benches and are cared for in the usual manner, commensurate with conventional greenhouse practices. From four to five weeks after treatment, the seedling plants are examined and rated according to the rating system set forth below. Where more than one test is involved for a given compound, the data are averaged.
(§4) Results of herbicide evaluation are expressed on a rating scale (0-9). The scale is based upon a visual observation of plant stand, vigor, malformation, size, chlorosis and overall plant appearance as compared with a control.

IPOMOEA SPP. = test: Preemergence herbicidal evaluation, IPOSS (Morningglory Spp.)
Method in brief: as §1

[6] = test system: TRITICUM AESTIVUM, CV. APOLLO; test: Preemergence herbicidal evaluation, TRZAWO (Wheat, Winter, CV. APOLLO)
Method in brief: as §1

[7] = test system: ECHINOCHLOA CRUS-GALLI, (L) BEAU; test: Postemergence herbicidal evaluation, ECHCG (Barnyardgrass)
Method in brief: as §2

ZEA MAYS L. [8] = test: Preemergence herbicidal evaluation, ZEAMX (Corn, Field)
Method in brief: as §1

CHENOPODIUM ALBUM, L. = test: Preemergence herbicidal evaluation, CHEAL (Lambsquarters, Common)
Method in brief: as §1

[9] = test system: ORYZA SATIVA, L. TEBONNET; test: Postemergence herbicidal evaluation, ORYSAT (Rice, Tebonnet)
Method: as §3, §4

[10] = test system: TRITICUM AESTIVUM, CV. APOLLO; test: Postemergence herbicidal evaluation, TRZAWO (Wheat, Winter, CV. APOLLO)
Method: as §3, §4

CASSIA OBTUSIFOLIA, L. [11] = test: Preemergence herbicidal evaluation, CASOB (Sicklepod)
Method in brief: as §1

[12] = test system: ECHINOCHLOA CRUS-GALLI, (L) BEAU; test: Preemergence herbicidal evaluation, ECHCG (Barnyardgrass)
Method in brief: as §1

CASSIA OBTUSIFOLIA, L. [13] = test: Postemergence herbicidal evaluation, CASOB (Sicklepod)
Method: as §3, §4

GALIUM APARINE = test: Preemergence herbicidal evaluation, GALAP (Galium)
Method in brief: as §1

[14] = test system: SETARIA VIRIDIS, (L) BEAU; test: Preemergence herbicidal evaluation, SETVI (Foxtail, Green)
Method in brief: as §1

[15] = test system: ORYZA SATIVA, L. TEBONNET; test: Preemergence herbicidal evaluation, ORYSAT (Rice, Tebonnet)
Method in brief: as §1

COC(=O)Cn1c(=O)n(C)c(=O)n(-c2cc(N3C(=O)C4=C(CCCC4)C3=O)c(F)cc2F)c1=O [Compound 10, Methyl 3-[5-(1-cyclohexene-1,2-dicarbox-imido)-2,4-difluorophenyl]-5-methyl-2,4,6-trioxo-s-triazine-1(2H)-acetate]
Herbicide rating (0-9) AMBEL ([1]; 0.125 kg/ha): 0.0
Herbicide rating (0-9) AMBEL ([1]; 0.250 kg/ha): 0.0
Herbicide rating (0-9) AMBEL ([1]; 0.500 kg/ha): 0.0
Herbicide rating (0-9) ABUTH ([2]; 0.250 kg/ha): 0.0
Herbicide rating (0-9) ABUTH ([2]; 0.500 kg/ha): 0.0
Herbicide rating (0-9) GLXMAW ([3]; 0.125 kg/ha): 0.0
Herbicide rating (0-9) GLXMAW ([3]; 0.250 kg/ha): 0.0
Herbicide rating (0-9) GLXMAW ([3]; 0.500 kg/ha): 0.0
Herbicide rating (0-9) SETVI ([4]; 0.125 kg/ha): 0.0
Herbicide rating (0-9) SETVI ([4]; 0.250 kg/ha): 0.0
Herbicide rating (0-9) SETVI ([4]; 0.500 kg/ha): 0.0
Herbicide rating (0-9) ZEAMX (ZEA MAYS L. [5]; 0.125 kg/ha): 4.0
Herbicide rating (0-9) ZEAMX (ZEA MAYS L. [5]; 0.250 kg/ha): 4.0
Herbicide rating (0-9) ZEAMX (ZEA MAYS L. [5]; 0.500 kg/ha): 4.0
Herbicide rating (0-9) IPOSS (IPOMOEA SPP.; 0.125 kg/ha): 0.0
Herbicide rating (0-9) IPOSS (IPOMOEA SPP.; 0.250 kg/ha): 0.0
Herbicide rating (0-9) IPOSS (IPOMOEA SPP.; 0.500 kg/ha): 0.0
Herbicide rating (0-9) TRZAWO ([6]; 0.125 kg/ha): 0.0
Herbicide rating (0-9) TRZAWO ([6]; 0.250 kg/ha): 0.0
Herbicide rating (0-9) TRZAWO ([6]; 0.500 kg/ha): 0.0
Herbicide rating (0-9) ECHCG ([7]; 0.125 kg/ha): 0.0
Herbicide rating (0-9) ECHCG ([7]; 0.250 kg/ha): 0.0
Herbicide rating (0-9) ECHCG ([7]; 0.500 kg/ha): 0.0
Herbicide rating (0-9) ZEAMX (ZEA MAYS L. [8]; 0.125 kg/ha): 0.0
Herbicide rating (0-9) ZEAMX (ZEA MAYS L. [8]; 0.250 kg/ha): 0.0
Herbicide rating (0-9) ZEAMX (ZEA MAYS L. [8]; 0.500 kg/ha): 0.0

CCOC(=O)Cn1c(=O)n(CC(=O)OC(C)(C)C)c(=O)n(-c2ccc(F)c(N3C(=O)C4=C(CCCC4)C3=O)c2)c1=O [Compound 8, 5-[3-(1-Cyclohexene-1,2-dicarboximido)-4-fluorophenyl]dihydro-2,4,6-trioxo-s-tri-azine-1,3(2H,4H)-diacetic acid, 1-tert-butyl, ethyl ester]
Herbicide rating (0-9) CHEAL (CHENOPODIUM ALBUM, L.; 0.125 kg/ha): 0.0
Herbicide rating (0-9) CHEAL (CHENOPODIUM ALBUM, L.; 0.250 kg/ha): 0.0
Herbicide rating (0-9) CHEAL (CHENOPODIUM ALBUM, L.; 0.500 kg/ha): 0.0
Herbicide rating (0-9) AMBEL ([1]; 0.125 kg/ha): 0.0
Herbicide rating (0-9) AMBEL ([1]; 0.250 kg/ha): 0.0
Herbicide rating (0-9) AMBEL ([1]; 0.500 kg/ha): 0.0
Herbicide rating (0-9) ABUTH ([2]; 0.125 kg/ha): 0.0
Herbicide rating (0-9) ABUTH ([2]; 0.250 kg/ha): 0.0
Herbicide rating (0-9) ABUTH ([2]; 0.500 kg/ha): 0.0
Herbicide rating (0-9) ORYSAT ([9]; 0.125 kg/ha): 1.5
Herbicide rating (0-9) ORYSAT ([9]; 0.250 kg/ha): 1.5
Herbicide rating (0-9) ORYSAT ([9]; 0.500 kg/ha): 1.5
Herbicide rating (0-9) TRZAWO ([10]; 0.125 kg/ha): 0.5
Herbicide rating (0-9) TRZAWO ([10]; 0.250 kg/ha): 0.5
Herbicide rating (0-9) TRZAWO ([10]; 0.500 kg/ha): 0.5
Herbicide rating (0-9) GLXMAW ([3]; 0.125 kg/ha): 0.0
Herbicide rating (0-9) GLXMAW ([3]; 0.250 kg/ha): 0.0
Herbicide rating (0-9) GLXMAW ([3]; 0.500 kg/ha): 0.0
Herbicide rating (0-9) CASOB (CASSIA OBTUSIFOLIA, L. [11]; 0.125 kg/ha): 0.0
Herbicide rating (0-9) CASOB (CASSIA OBTUSIFOLIA, L. [11]; 0.250 kg/ha): 0.0
Herbicide rating (0-9) CASOB (CASSIA OBTUSIFOLIA, L. [11]; 0.500 kg/ha): 0.0
Herbicide rating (0-9) ECHCG ([12]; 0.125 kg/ha): 0.0
Herbicide rating (0-9) ECHCG ([12]; 0.250 kg/ha): 0.0
Herbicide rating (0-9) ECHCG ([12]; 0.500 kg/ha): 0.0
Herbicide rating (0-9) CASOB (CASSIA OBTUSIFOLIA, L. [13]; 0.125 kg/ha): 0.0
Herbicide rating (0-9) CASOB (CASSIA OBTUSIFOLIA, L. [13]; 0.250 kg/ha): 0.0
Herbicide rating (0-9) CASOB (CASSIA OBTUSIFOLIA, L. [13]; 0.500 kg/ha): 0.0
Herbicide rating (0-9) SETVI ([4]; 0.125 kg/ha): 0.0
Herbicide rating (0-9) SETVI ([4]; 0.250 kg/ha): 0.0
Herbicide rating (0-9) SETVI ([4]; 0.500 kg/ha): 0.0
Herbicide rating (0-9) IPOSS (IPOMOEA SPP.; 0.125 kg/ha): 0.0
Herbicide rating (0-9) IPOSS (IPOMOEA SPP.; 0.250 kg/ha): 0.0
Herbicide rating (0-9) IPOSS (IPOMOEA SPP.; 0.500 kg/ha): 0.0
Herbicide rating (0-9) GALAP (GALIUM APARINE; 0.125 kg/ha): 0.0
Herbicide rating (0-9) GALAP (GALIUM APARINE; 0.250 kg/ha): 0.0
Herbicide rating (0-9) GALAP (GALIUM APARINE; 0.500 kg/ha): 0.0
Herbicide rating (0-9) SETVI ([14]; 0.125 kg/ha): 0.0
Herbicide rating (0-9) SETVI ([14]; 0.250 kg/ha): 0.0
Herbicide rating (0-9) SETVI ([14]; 0.500 kg/ha): 0.0
Herbicide rating (0-9) TRZAWO ([6]; 0.125 kg/ha): 0.0
Herbicide rating (0-9) TRZAWO ([6]; 0.250 kg/ha): 0.0
Herbicide rating (0-9) TRZAWO ([6]; 0.500 kg/ha): 0.0
Herbicide rating (0-9) ORYSAT ([15]; 0.125 kg/ha): 0.0
Herbicide rating (0-9) ORYSAT ([15]; 0.250 kg/ha): 0.0
Herbicide rating (0-9) ORYSAT ([15]; 0.500 kg/ha): 0.0
Herbicide rating (0-9) ECHCG ([7]; 0.125 kg/ha): 0.0
Herbicide rating (0-9) ECHCG ([7]; 0.250 kg/ha): 0.0
Herbicide rating (0-9) ECHCG ([7]; 0.500 kg/ha): 0.0
Herbicide rating (0-9) ZEAMX (ZEA MAYS L. [8]; 0.125 kg/ha): 0.0
Herbicide rating (0-9) ZEAMX (ZEA MAYS L. [8]; 0.250 kg/ha): 0.0
Herbicide rating (0-9) ZEAMX (ZEA MAYS L. [8]; 0.500 kg/ha): 0.0
